Literature values in patent publication US8647680B2, “Methods and compositions for treatment of lesioned sites of body vessels” (Abbott Cardiovascular Systems Inc., priority 2006, dated 2014).

Assays:
macrophage cells = conditions: oral administration

Compound | apoptosis of macrophage cells (macrophage cells) | solubility in water [µM]
N=C(N)NCCC[C@H](N)C(=O)O [L-arginine] | increased apoptosis of macrophage cells | 
[N]=O [nitric oxide] |  | 2000 to 3000
